According to patent US5686486A, “4-hydroxy-benzopyran-2-ones and 4-hydroxy-cycloalkyl[b]pyran-2-ones useful to treat retroviral infections” (priority 1995, dated 1997):
Read-outs that look alike come from different tables or passages of the source.

How the values were obtained:
HIV-1 protease [1] = target: T1, HIV-1 protease (Human immunodeficiency virus type 1 group M subtype B, UniProt P04585); test: biochemical; conditions: for inhibition at 1 µM: read-out: HIV-1 Protease % Inhib, dose 1.000 uM; for inhibition at 10 µM: read-out: HIV-1 Protease % Inhib, dose 10.000 uM; for inhibition at 100 µM: read-out: HIV-1 Protease % Inhib, dose 100.000 uM; for inhibition at 0.41 µM: read-out: HIV-1 Protease % Inhib, dose 0.410 uM; for inhibition at 1.23 µM: read-out: HIV-1 Protease % Inhib, dose 1.230 uM; for inhibition at 3.7 µM: read-out: HIV-1 Protease % Inhib, dose 3.700 uM; for inhibition at 11 µM: read-out: HIV-1 Protease % Inhib, dose 11.000 uM; for inhibition at 33 µM: read-out: HIV-1 Protease % Inhib, dose 33.000 uM; for inhibition at 0.123 µM: read-out: HIV-1 Protease % Inhib, dose 0.123 uM; for inhibition at 0.37 µM: read-out: HIV-1 Protease % Inhib, dose 0.370 uM; for inhibition at 1.1 µM: read-out: HIV-1 Protease % Inhib, dose 1.100 uM; for inhibition at 3.3 µM: read-out: HIV-1 Protease % Inhib, dose 3.300 uM; for inhibition at 30 µM: read-out: HIV-1 Protease % Inhib, dose 30.000 uM
Method in brief: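 Percent inhibition derived from fluorescent cleavage product separated by filtration after streptavidin-bead capture of intact biotin/FITC substrate. Reaction: enzyme (10 μl, 0.1 μM stock) with substrate (20 μl, 0.2 μM stock) and compound, 1 h at room temperature in dark, pH 5.5 acetate buffer with 1.0 M NaCl and 0.05% NP-40.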

HIV-1 protease [2] = target: T1, HIV-1 protease; test: biochemical
Method in brief: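 Enzyme (40 nM stock) and substrate (200 μM stock) incubated with inhibitor, 24–48 two-fold serial concentrations, for 90 min at room temperature, then quenched with avidin beads. Nonlinear least-squares analysis gives Ki; a known-Ki inhibitor validates each run.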

Row | SMILES | inhibition at 1 µM (HIV-1 protease [1]) | inhibition at 10 µM (HIV-1 protease [1]) | inhibition at 100 µM (HIV-1 protease [1]) | Ki (HIV-1 protease [2]; HIV-1 FITC KI) | inhibition at 0.41 µM (HIV-1 protease [1]) | inhibition at 1.23 µM (HIV-1 protease [1]) | inhibition at 3.7 µM (HIV-1 protease [1]) | inhibition at 11 µM (HIV-1 protease [1]) | inhibition at 33 µM (HIV-1 protease [1]) | inhibition at 0.123 µM (HIV-1 protease [1]) | inhibition at 0.37 µM (HIV-1 protease [1]) | inhibition at 1.1 µM (HIV-1 protease [1]) | inhibition at 3.3 µM (HIV-1 protease [1]) | inhibition at 30 µM (HIV-1 protease [1]) | Ki (HIV-1 protease [2]; read-out: HIV-1 FITC KI)
1 | O=c1oc2ccccc2c(O)c1C(Cc1ccccc1)Cc1ccccc1 [Example 146, 3-(1-Benzyl-2-phenyl-ethyl)4-hydroxy-chromen-2-one] | 54.4% | 92.7% | 98.6% | 0.13 µM |  |  |  |  |  |  |  |  |  |  | 
2 | CCC(c1cccc(C(=O)NC(C(=O)NCc2ccccn2)C(C)CC)c1)c1c(O)c2ccccc2oc1=O (stereo not drawn) [Example 149, 3-(1-(4-Hydroxy-2-oxo-2H-chromen-3-yl)-propyl)-N-(2-methyl-1-(pyridin-2-ylmethylcarbomoyl)-butyl)-benzamide] | 28.8% | 99.2% | 97.3% | 0.405 µM |  |  |  |  |  |  |  |  |  |  | 
3 | CC(C)(C)C(c1ccccc1)c1c(O)c2ccccc2oc1=O (stereo not drawn) [Example 152, 3-(2,2-Dimethyl-1-phenyl-propyl)-4-hydroxy-chromen-2-one] |  |  | 110% | 1.01 µM | < 10% | 14.2% | 35.5% | 73.7% | 102% |  |  |  |  |  | 
4 | CCC(c1ccccc1)c1c(O)c2ccc(OCCOCCOCCOC)cc2oc1=O (stereo not drawn) [Example 154] | 13.6% | 77.1% | 96% | 0.52 µM |  |  |  |  |  |  |  |  |  |  | 
5 | O=c1oc2ccccc2c(O)c1C1CCN(Cc2ccccc2)c2ccccc21 (stereo not drawn) [Example 159, 3-(1-Benzyl-1,2,3,4-tetrahydro-quinolin4-yl)-4-hydroxy-chromin-2-one] |  |  | 91.1% | 2.4 µM | < 10% | 14.4% | 39.8% | 74.3% | 84.2% |  |  |  |  |  | 
6 | CC(CO)C1CCCCCc2c1oc(=O)c(C(c1ccccc1)C1CC1)c2O (stereo not drawn) [Example 161, 3-(Cyclopropylphenylmethyl)-5,6,7,8,9,10-hexahydro-4-hydroxy-10-(2-hydroxy-1-methylethyl)-2H-cyclooct[b]pyran-2-one] |  | 106% |  |  |  |  |  |  |  | 20% | 67.3% | 98.7% | 104% | 111% | 0.032 µM
7 | CC(O)CC1CCCCCc2c1oc(=O)c(C(c1ccccc1)C1CC1)c2O (stereo not drawn) [Example 162, 3-(Cyclopropylphenylmethyl)-5,6,7,8,9,10-hexahydro-4-hydroxy-10-(2-hydroxypropyl)-2H-cycloocta[b]pyran-2-one] |  | 102% |  |  |  |  |  |  |  | 14.8% | 56% | 92.2% | 99.3% | 109% | 0.04 µM
8 | O=c1oc2c(c(O)c1C(c1ccccc1)C1CC1)CCCCCC2CC1CO1 (stereo not drawn) [Example 163, 3-(Cyclopropylphenylmethyl)-5,6,7,8,9,10-hexahydro-4-hydroxy-10-(oxiranylmethyl)-2H-cycloocta[b]pyran-2-one] |  | 107% |  |  |  |  |  |  |  | 17.7% | 56% | 84.2% | 98.6% | 105% | 0.034 µM
9 | Nc1cccc(C(c2c(O)c3c(oc2=O)CCCCCC3)C2CC2)c1 (stereo not drawn) [Example 164, 3-[(3-Aminophenyl)cyclopropylmethyl]-5,6,7,8,9,10-hexahydro-4-hydroxy-2H-cycloocta[b]pyran-2-one] |  | 99.7% |  |  |  |  |  |  |  |  | 14.6% | 46.2% | 87.3% | 102% | 0.078 µM
10 | CC(C)(C)OC(=O)NCCC(=O)Nc1cccc(C(c2c(O)c3ccccc3oc2=O)C2CC2)c1 (stereo not drawn) [Example 165, Carbamic acid, [3-[[3-[cyclopropyl(4-hydroxy-2-oxo-2H-1-benzopyran-3-yl)methyl]phenyl]amino]-3-oxopropyl]-, 1,1-dimethylethyl ester] |  |  | 114% | 0.086 µM | 61.7% | 86.7% | 98.4% | 106% | 111% |  |  |  |  |  | 
11 | COc1ccc2c(O)c(C(c3cccc(NC(=O)CCNC(=O)OC(C)(C)C)c3)C3CC3)c(=O)oc2c1 (stereo not drawn) [Example 167, Carbamic acid, [3-[[3-[cyclopropyl(4-hydroxy-7-methoxy-2-oxo-2H-1-benzopyran-3-yl)methyl]phenyl]amino]-3-oxopropyl]-, 1,1-dimethylethyl ester] |  |  | 116% | 0.028 µM | 83.2% | 99.5% | 113% | 114% | 114% |  |  |  |  |  | 
12 | O=C(CCn1ccc2ccccc21)Nc1cccc(C(c2c(O)c3ccccc3oc2=O)C2CC2)c1 (stereo not drawn) [Example 168, Coumarin, 4-hydroxy-3-(α-(3-((3-(1H-indol-1-yl)-1-oxopropyl)amino)phenyl)cyclopropylmethyl)] |  | 94.7% |  | 0.135 µM |  |  |  |  |  |  | 12.4% | 46.4% | 74.9% | 107% | 
13 | CCC(=O)C1CCCCCc2c1oc(=O)c(C(c1ccccc1)C1CC1)c2O (stereo not drawn) [Example 174, 3-(Cyclopropylphenylmethyl)-5,6,7,8,9,10-hexahydro-4-hydroxy-10-(1-oxopropyl)-2H-cycloocta[b]pyran-2-one] |  | 104% |  |  |  |  |  |  |  | 11.4% | 35.8% | 75% | 95.9% | 97.8% | 0.035 µM
14 | O=c1oc2c(c(O)c1C(c1ccccc1)C1CC1)CCCCCC2C(O)C1CC1 (stereo not drawn) [Example 176, 10-(Cyclopropylhydroxymethyl)-3-(cyclopropylphenylmethyl)-5,6,7,8,9, 10-hexahydro-4-hydroxy-2H-cycloocta[b]pyran-2-one] |  | 109% |  |  |  |  |  |  |  |  | 27.3% | 82.6% | 104% | 118% | 0.037 µM
15 | COCC1CCCCCc2c1oc(=O)c(C(c1ccccc1)C1CC1)c2O (stereo not drawn) [Example 177, 3-(Cyclopropylphenylmethyl)-5,6,7,8,9,10-hexahydro4-hydroxy-10-(methoxymethyl)-2H-cycloocta[b]pyran-2-one] |  | 104% |  |  |  |  |  |  |  |  | 16.9% | 53.9% | 88.9% | 104% | 0.055 µM
16 | COCCC1CCCCCc2c1oc(=O)c(C(c1ccccc1)C1CC1)c2O (stereo not drawn) [Example 178, 3-(Cyclopropylphenylmethyl)-5,6,7,8,9,10-hexahydro-4-hydroxy-10-(2-methoxyethyl)-2H-cycloocta[b]pyran-2-one] |  | 105% |  |  |  |  |  |  |  | 16.2% | 45.5% | 86.4% | 98.8% | 103% | 0.027 µM
17 | O=c1oc2c(c(O)c1C(c1ccccc1)C1CC1)CCCCCC2CC1CCCOC1 (stereo not drawn) [Example 179, 3-(Cyclopropylphenylmethyl)-5,6,7,8,9,10-hexahydro-4-hydroxy-10-[(tetrahydro-2H-pyran-3-yl)methyl]-2H-cycloocta[b]pyran-2-one] |  | 93.7% |  |  |  |  |  |  |  |  | 38.6% | 71.6% | 87.2% | 91.1% | 0.019 µM
